Drawing on patent publication US20180179177A1, “N-ACYLIMINO HETEROCYCLIC COMPOUNDS FOR CONTROLLING INVERTEBRATE PESTS” (BASF SE, priority 2014, published 2018), this text covers mortality for 3 compounds.

Holding throughout (type): in vivo
Test [1] has as its system Rice brown plant hopper (Nilaparvata lugens). The test can be described thus: Rice brown plant hopper test, sprayed rice seedlings. The conditions noted are these: after 72 hours, read-out: mortality in comparison with untreated controls. On the procedure:
B.9 Rice Brown Plant Hopper (Nilaparvata lugens)
Rice seedlings are cleaned and washed 24 hours before spraying. The active compounds is formulated in 50:50 acetone:water (vol:vol) and 0.1% vol/vol surfactant (EL 620) was added. Potted rice seedlings are sprayed with 5 ml test solution, air dried, placed in cages and inoculated with 10 adults. Treated rice plants are kept at about 28-29° C. and relative humidity of about 50-60%. Percent mortality is recorded after 72 hours.

Test [2] has as its system Rice green leafhopper (Nephotettix virescens). The test can be described thus: Rice green leafhopper test, sprayed rice seedlings. The conditions noted are these: after 72 hours, read-out: mortality in comparison with untreated controls. The method, then:
B.7 Rice Green Leafhopper (Nephotettix virescens)
Rice seedlings are cleaned and washed 24 hours before spraying. The active compounds are formulated in 50:50 acetone:water (vol:vol), and 0.1% vol/vol surfactant (EL 620) is added. Potted rice seedlings are sprayed with 5 ml test solution, air dried, placed in cages and inoculated with 10 adults. Treated rice plants are kept at about 28-29° C. and relative humidity of about 50-60%. Percent mortality is recorded after 72 hours.

Test [3] has as its system green peach aphid (Myzus persicae). Description: Green peach aphid control, systemic, artificial diet under membrane. The conditions noted are these: 72 h, aphid mortality after 3 days, read-out: mortality in comparison with untreated controls. The source says: B.4 Green Peach Aphid (Myzus persicae)
For evaluating control of green peach aphid (Myzuspersicae) through systemic means, the test unit consists of 96-well-microtiter plates containing liquid artificial diet under an artificial membrane.
The compounds are formulated using a solution containing 75% v/v water and 25% v/v DMSO. Different concentrations of formulated compounds are pipetted into the aphid diet, using a custom built pipetter, at two replications.
After application, 5-8 adult aphids are placed on the artificial membrane inside the microtiter plate wells. The aphids are then allowed to suck on the treated aphid diet and incubated at about 23±10C and about 50±5% relative humidity for 3 days. Aphid mortality and fecundity is then visually assessed.

The test system of test [4] is Orchid thrips (Dichromothrips corbetti). The test can be described thus: Orchid thrips floral-immersion test. The conditions noted are these: 72 hours after treatment, read-out: mortality in comparison with untreated controls. On the procedure: B.5 Orchid Thrips (Dichromothrips Corbetti)
Dichromothrips corbetti adults used for bioassay are obtained from a colony maintained continuously under laboratory conditions. For testing purposes, the test compound is diluted in a 1:1 mixture of acetone:water (vol:vol), plus 0.01% vol/vol Alkamuls® EL 620 surfactant.
Thrips potency of each compound is evaluated by using a floral-immersion technique. Plastic petri dishes are used as test arenas. All petals of individual, intact orchid flowers are dipped into treatment solution and allowed to dry. Treated flowers are placed into individual petri dishes along with about 20 adult thrips. The petri dishes are then covered with lids. All test arenas are held under continuous light and a temperature of about 28° C. for duration of the assay. After 3 days, the numbers of live thrips are counted on each flower, and along inner walls of each petri dish. The percent mortality is recorded 72 hours after treatment.

Test [5] relates to Cotton aphid (Aphis gossypih). The test can be described thus: Cotton aphid test, sprayed potted plants. The conditions noted are these: after 72 hours, read-out: mortality in comparison with untreated controls. On the procedure: B.11 Cotton Aphid (Aphis gossypih)
(§1) The active compound is dissolved at the desired concentration in a mixture of 1:1 (vol:vol) distilled water:acetone. Surfactant (Alkamuls® EL 620) is added at a rate of 0.1% (vol/vol). The test solution is prepared at the day of use.
Potted cowpea plants were colonized with approximately 50-100 aphids of various stages by manually transferring a leaf tissue cut from infested plant 24 hours before application. Plants were sprayed after the pest population has been recorded. Treated plants are maintained on light carts at about 28° C. Percent mortality was assessed after 72 hours.

The subject of test [6] is vetch aphid (Megoura viciae). The test can be described thus: Vetch aphid control, contact or systemic, broad bean leaf disks. The following applies: foliar, 120 h, aphid mortality after 5 days, read-out: mortality in comparison with untreated controls. On the procedure:
B.3 Vetch Aphid (Megoura viciae)
For evaluating control of vetch aphid (Megoura viciae) through contact or systemic means the test unit consisted of 24-well-microtiter plates containing broad bean leaf disks.
The compounds were formulated using a solution containing 75% v/v water and 25% v/v DMSO. Different concentrations of formulated compounds were sprayed onto the leaf disks at 2.5 μl, using a custom built micro atomizer, at two replications.
After application, the leaf disks were air-dried and 5-8 adult aphids were placed on the leaf disks inside the microtiter plate wells. The aphids were then allowed to suck on the treated leaf disks and were incubated at about 23±10C and about 50±5% relative humidity for 5 days. Aphid mortality and fecundity was then visually assessed.

Test [7] concerns Cowpea aphid (Aphis craccivora). The test can be described thus: Cowpea aphid test, sprayed potted cowpea plants. The conditions noted are these: after 72 hours, read-out: mortality in comparison with untreated controls. On the procedure:
B.6 Cowpea Aphid (Aphis craccivora)
as §1
Potted cowpea plants are colonized with approximately 50-100 aphids of various stages by manually transferring a leaf tissue cut from infested plant 24 hours before application. Plants are sprayed after the pest population has been recorded. Treated plants are maintained on light carts at about 28° C. Percent mortality is assessed after 72 hours.

For test [8], the system named is Mediterranean fruitfly (Ceratitis capitata). Description: Mediterranean fruitfly control, insect diet in microtiter plates. The following applies: 120 h, egg and larval mortality after 5 days, read-out: mortality in comparison with untreated controls. The method, then:
B.2 Mediterranean Fruitfly (Ceratitis capitata)
For evaluating control of Mediterranean fruitfly (Ceratitis capitata) the test unit consisted of microtiter plates containing an insect diet and 50-80 C. capitata eggs. The compounds were formulated using a solution containing 75% v/v water and 25% v/v DMSO. Different concentrations of formulated compounds were sprayed onto the insect diet at 5 μl, using a custom built micro atomizer, at two replications.
After application, microtiter plates were incubated at about 28±1° C. and about 80±5% relative humidity for 5 days. Egg and larval mortality was then visually assessed.

For test [9], the system named is boll weevil (Anthonomus grandis). The test can be described thus: Boll weevil control, insect diet in 96-well microtiter plates. The conditions noted are these: 120 h, egg and larval mortality after 5 days, read-out: mortality in comparison with untreated controls. On the procedure:
B.1 Boll Weevil (Anthonomus grandis)
For evaluating control of boll weevil (Anthonomus grandis) the test unit consisted of 96-well-microtiter plates containing an insect diet and 5-10 A. grandis eggs.
The compounds were formulated using a solution containing 75% v/v water and 25% v/v DMSO. Different concentrations of formulated compounds were sprayed onto the insect diet at 5 μl, using a custom built micro atomizer, at two replications.
After application, microtiter plates were incubated at about 25±10C and about 75±5% relative humidity for 5 days. Egg and larval mortality was then visually assessed.

Test [10] concerns Diamond back moth (Plutella xylostella). Description: Diamond back moth test, dipped cabbage leaves. The following applies: 72 hours after treatment, 3rd instar larvae, read-out: mortality in comparison with untreated controls. The method, then: B.10 Diamond Back Moth (Plutella xylostella)
The active compound is dissolved at the desired concentration in a mixture of 1:1 (vol:vol) distilled water:aceteone. Surfactant (Alkamuls® EL 620) is added at a rate of 0.1% (vol/vol). The test solution is prepared at the day of use.
Leaves of cabbage were dipped in test solution and air-dried. Treated leaves were placed in petri dish eslined with moist filter paper and inoculated with ten 3rd instar larvae. Mortality was recorded 72 hours after treatment. Feeding damages were also recorded using a scale of 0-100%.

In test [11] the test system is Green soldier stink bug (Nezara viridula). The test can be described thus: Green soldier stink bug test, sprayed soybean pods. The following applies: 120 h, after 5 days, 3rd instar, read-out: mortality in comparison with untreated controls. The method, then:
B.8 Green Soldier Stink Bug (Nezara viridula)
The active compound is dissolved at the desired concentration in a mixture of 1:1 (vol:vol) distilled water:aceteone. Surfactant (Kinetic HV) is added at a rate of 0.01% (vol/vol). The test solution is prepared at the day of use.
Soybean pods were placed in microwavable plastic cups lined with moist filter paper and inoculated with ten 3rd instar N. viridula. Using a hand atomizer, approximately 2 ml solution is sprayed into each cup. Treated cups were kept at about 28-29° C. and relative humidity of about 50-60%. Percent mortality was recorded after 5 days.

Test [12] concerns Silverleaf whitefly (Bemisia argentifolii). The test can be described thus: Silverleaf whitefly test, sprayed cotton plants. The conditions noted are these: 72 h, 3 days after treatment, adults, read-out: mortality in comparison with untreated controls. The source says: B.12 Silverleaf Whitefly (Bemisia argentifolii)
The active compounds are formulated in cyclohexanone as a 10,000 ppm solution supplied in tubes. The tubes are inserted into an automated electrostatic sprayer equipped with an atomizing nozzle and they serve as stock solutions for which lower dilutions are made in 50% acetone:50% water (v/v). A nonionic surfactant (Kinetic®) is included in the solution at a volume of 0.01% (v/v).
Cotton plants at the cotyledon stage (one plant per pot) are sprayed by an automated electrostatic plant sprayer equipped with an atomizing spray nozzle. The plants are dried in the sprayer fume hood and then removed from the sprayer. Each pot is placed into a plastic cup and about 10 to 12 whitefly adults (approximately 3-5 days old) are introduced. The insects are collected using an aspirator and a nontoxic Tygon® tubing connected to a barrier pipette tip. The tip, containing the collected insects, is then gently inserted into the soil containing the treated plant, allowing insects to crawl out of the tip to reach the foliage for feeding. Cups are covered with a reusable screened lid. […] Mortality is assessed 3 days after treatment, compared to untreated control plants.

For test [13], the system named is Southern armyworm (Spodoptera eridania). Description: Southern armyworm test, sprayed lima bean plants. The following applies: 96 h, 4 days after treatment, larvae, read-out: mortality in comparison with untreated controls. The method, then: B.13 Southern Armyworm (Spodoptera eridania)
The active compounds were formulated in cyclohexanone as a 10,000 ppm solution supplied in tubes. The tubes were inserted into an automated electrostatic sprayer equipped with an atomizing nozzle and they served as stock solutions for which lower dilutions were made in 50% acetone:50% water (v/v). A nonionic surfactant (Kinetic®) was included in the solution at a volume of 0.01% (v/v).
Lima bean plants (variety Sieva) were grown 2 plants to a pot and selected for treatment at the 1st true leaf stage. Test solutions were sprayed onto the foliage by an automated electrostatic plant sprayer equipped with an atomizing spray nozzle. The plants were dried in the sprayer fume hood and then removed from the sprayer. Each pot was placed into perforated plastic bags with a zip closure. About 10 to 11 armyworm larvae were placed into the bag and the bags zipped closed. Test plants were maintained in a growth room at about 250C and about 20-40% relative humidity for 4 days, avoiding direct exposure to fluorescent light (24 hour photoperiod) to prevent trapping of heat inside the bags. Mortality and reduced feeding were assessed 4 days after treatment, compared to untreated control plants.

For `O=C(C[N+](=O)[O-])/N=c1\ccccn1Cc1ccc(Cl)nc1` [Compound E1.4], the mortality at 500 ppm in [1] was not below 75%; in test [2], not below 75%; in [4], not below 75%; in [5], more than 75%; in test [7], not below 75%; in test [10], more than 75%. Further, the mortality at 500 ppm was more than 75% in [11], not below 75% in test [12] and not below 75% in test [13]. Besides, the mortality at 2500 ppm in test [3], in [6], in test [8] and in test [9] was not below 75% throughout.
With `O=C(/N=c1\ccccn1Cc1ccc(Cl)nc1)C1([N+](=O)[O-])CC1c1ccccc1` (stereo not drawn) [Compound E2.3], the mortality at 2500 ppm in test [3] and in [6] was not below 75% each time. Besides, the mortality at 500 ppm in [7] was not below 75%.
Take `CC(C)/C=C(/C(=O)/N=c1\ccccn1Cc1ccc(Cl)nc1)[N+](=O)[O-]` [Compound E3.1]: the mortality at 500 ppm in test [2] is not below 75%; in test [4] it was not below 75%; in test [5] it was more than 75%; in test [7] it was not below 75%; in [12] it was not below 75%. Also, the mortality at 2500 ppm in [3], in test [6] and in [8] was not below 75% throughout.
